This is an account of results in PubChem BioAssay AID330 (DTP/NCI, 2004).

Where “and” joins values, the source holds several entries; their conditions need not be identical. Equal entries are not always repeated. Toxic doses and inconclusive results are not listed.

The test deals with P388 leukemia ip, CD2F1 mice, survival T/C. The experiment in a line: NCI In Vivo Anticancer Drug Screen. Data for tumor model P388 Leukemia (intraperitoneal) in CD2F1 (CDF1) mice. The settings on record: endpoint: median survival time, higher = longer survival. An outline of the steps: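 Mice carrying the transplanted tumor received test compound or vehicle. Survival was recorded in each group, and the value is the treated-group measurement divided by that of the vehicle-treated control group.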

[1] abbreviates: dose: 60.0 mg/kg/injection, schedule: Q01DX005 (ip), vehicle: saline with Tween-80.
Where [2] appears, read: dose: 120.0 mg/kg/injection, schedule: Q01DX005 (ip), vehicle: saline with Tween-80.
Setting [3] is: dose: 240.0 mg/kg/injection, schedule: Q01DX005 (ip), vehicle: saline with Tween-80.
Setting [4] is: dose: 25.0 mg/kg/injection, schedule: Q01DX005 (ip), vehicle: saline with Tween-80.
The mark [5] stands for this setting: dose: 50.0 mg/kg/injection, schedule: Q01DX005 (ip), vehicle: saline with Tween-80.
Where [6] appears, read: dose: 25.0 mg/kg/injection, schedule: Q01DX009 (ip), vehicle: saline with Tween-80.
Where [7] appears, read: dose: 50.0 mg/kg/injection, schedule: Q01DX009 (ip), vehicle: saline with Tween-80.
[8] abbreviates: dose: 100.0 mg/kg/injection, schedule: Q01DX009 (ip), vehicle: saline with Tween-80.

Regarding `CCOc1c(N=Nc2ccccc2[N+](=O)[O-])c(C)nn1C(N)=S`, the T/C by setting is: (dose: 15.0 mg/kg/injection, schedule: Q01DX005 (ip), vehicle: Klucel + Tween-80) 100 % of control; (dose: 30.0 mg/kg/injection, schedule: Q01DX005 (ip), vehicle: Klucel + Tween-80) 89 % of control; (dose: 60.0 mg/kg/injection, schedule: Q01DX005 (ip), vehicle: Klucel + Tween-80) 86 % of control and 90 % of control.
Regarding `CC1(C(=O)O)CCCC2(C)C3CC(=O)OC3(CC(=O)O)CCC12` (stereo not given), the T/C is, setting by setting: (dose: 7.5 mg/kg/injection, schedule: Q01DX009 (ip), vehicle: saline + alcohol) 91 % of control; (dose: 15.0 mg/kg/injection, schedule: Q01DX009 (ip), vehicle: saline + alcohol) 98 % of control; (dose: 30.0 mg/kg/injection, schedule: Q01DX009 (ip), vehicle: saline + alcohol) 103 % of control.
With `COc1nc2nc(SC(CC(=O)O)C(=O)c3ccc(Cl)cc3)[nH]c2c2ccccc12` (stereo not given), the T/C by setting is: under setting [1], 97 % of control; under setting [2], 95 % of control; under setting [3], 92 % of control.
As to `COc1c(OC(C)=O)c(OC(C)=O)cc2c1-c1ccc(SC)c(=O)cc1C(NC(C)=O)CC2` (stereo not given), the T/C is, setting by setting: (dose: 1.25 mg/kg/injection, schedule: Q01DX009 (ip), vehicle: Klucel (hydroxypropylcellulose) (HPC)) 118 % of control; (dose: 5.0 mg/kg/injection, schedule: Q01DX009 (ip), vehicle: Klucel (hydroxypropylcellulose) (HPC)) 150 % of control; (dose: 10.0 mg/kg/injection, schedule: Q01DX009 (ip), vehicle: Klucel (hydroxypropylcellulose) (HPC)) 169 % of control and 185 % of control; (dose: 20.0 mg/kg/injection, schedule: Q01DX009 (ip), vehicle: Klucel (hydroxypropylcellulose) (HPC)) 178 % of control.
On to `CC1(C)C=Cc2c(cc(O)c3c(=O)c4cccnc4oc23)O1`, for which the T/C by setting is: (dose: 50.0 mg/kg/injection, schedule: Q01DX005 (ip), vehicle: Klucel (hydroxypropylcellulose) (HPC)) 90 % of control; (dose: 100.0 mg/kg/injection, schedule: Q01DX005 (ip), vehicle: Klucel (hydroxypropylcellulose) (HPC)) 102 % of control; (dose: 200.0 mg/kg/injection, schedule: Q01DX005 (ip), vehicle: Klucel (hydroxypropylcellulose) (HPC)) 90 % of control.
Turning to `O=S(=O)(c1cnccc1N1CCN(CCO)CC1)N1CCCCC1`, the T/C is, setting by setting: (dose: 50.0 mg/kg/injection, schedule: Q01DX009 (ip), vehicle: saline) 101 % of control; (dose: 100.0 mg/kg/injection, schedule: Q01DX009 (ip), vehicle: saline) 105 % of control.
As for `CCOc1cc2c(cc1C(C)c1ccc(OC(C)C)cc1)OCO2` (stereo not given), the T/C under setting [4] was 108 % of control; the T/C under setting [5] is 106 % of control; the T/C (dose: 100.0 mg/kg/injection, schedule: Q01DX005 (ip), vehicle: saline with Tween-80) was 103 % of control; the T/C (dose: 200.0 mg/kg/injection, schedule: Q01DX005 (ip), vehicle: saline with Tween-80) is 103 % of control.
`CCOC(=O)C1CCCC(=O)C1Cc1cccc(OC)c1` (stereo not given): the T/C by setting is: (dose: 50.0 mg/kg/injection, schedule: Q01DX009 (ip), vehicle: other) 100 % of control; (dose: 100.0 mg/kg/injection, schedule: Q01DX009 (ip), vehicle: other) 106 % of control; (dose: 200.0 mg/kg/injection, schedule: Q01DX009 (ip), vehicle: other) 100 % of control.
For the molecule `O=C(OC1CCc2ccccc2C1)c1ccc(N=Nc2ccccc2)cc1` (stereo not given), the T/C is, setting by setting: (dose: 15.0 mg/kg/injection, schedule: Q01DX005 (ip), vehicle: saline with Tween-80) 100 % of control; (dose: 30.0 mg/kg/injection, schedule: Q01DX005 (ip), vehicle: saline with Tween-80) 97 % of control; under setting [1], 91 % of control; under setting [2], 86 % of control.
On to `O=C1C2=C(Nc3cc(Cl)ccc3N2)OC1c1c[nH]c2ccc(COc3ccccc3)cc12` (stereo not given), for which the T/C under setting [1] is 93 % of control, the T/C under setting [2] is 93 % of control and the T/C under setting [3] is 89 % of control.
As to `O=C1c2c(O)ccc(O)c2C(=O)c2c(NCCCO)ccc(NCCCO)c21`, the T/C (dose: 0.62 mg/kg/injection, schedule: Q01DX009 (ip), vehicle: acid diluted with saline) was 110 % of control; the T/C (dose: 1.25 mg/kg/injection, schedule: Q01DX009 (ip), vehicle: acid diluted with saline) was 103 % of control; the T/C (dose: 2.5 mg/kg/injection, schedule: Q01DX009 (ip), vehicle: acid diluted with saline) was 100 % of control; the T/C (dose: 5.0 mg/kg/injection, schedule: Q01DX009 (ip), vehicle: acid diluted with saline) was 107 % of control; the T/C (dose: 10.0 mg/kg/injection, schedule: Q01DX009 (ip), vehicle: acid diluted with saline) is 98 % of control; the T/C (dose: 20.0 mg/kg/injection, schedule: Q01DX009 (ip), vehicle: acid diluted with saline) was 100 % of control. Also, the T/C is, setting by setting: (dose: 40.0 mg/kg/injection, schedule: Q01DX009 (ip), vehicle: acid diluted with saline) 100 % of control; (dose: 80.0 mg/kg/injection, schedule: Q01DX009 (ip), vehicle: acid diluted with saline) 91 % of control.
`O=C(O)C1(Cc2ccc(O)cc2)NCCS1` (stereo not given): the T/C runs as follows: (dose: 100.0 mg/kg/injection, schedule: Q04DX002 (ip), vehicle: Klucel (hydroxypropylcellulose) (HPC)) 104 % of control; (dose: 200.0 mg/kg/injection, schedule: Q04DX002 (ip), vehicle: Klucel (hydroxypropylcellulose) (HPC)) 104 % of control.
For the molecule `CCN(CC)CCOCCc1ccccc1`, the T/C is, setting by setting: (dose: 12.5 mg/kg/injection, schedule: Q01DX005 (ip), vehicle: saline with Tween-80) 98 % of control; under setting [4], 98 % of control; under setting [5], 98 % of control and 100 % of control.
For the molecule `O=c1c(OCc2ccccc2)cccn1Cc1ccccc1`, the T/C (dose: 25.0 mg/kg/injection, schedule: Q01DX009 (ip), vehicle: distilled water + Tween-80) is 92 % of control; the T/C (dose: 50.0 mg/kg/injection, schedule: Q01DX009 (ip), vehicle: distilled water + Tween-80) was 95 % of control; the T/C (dose: 100.0 mg/kg/injection, schedule: Q01DX009 (ip), vehicle: distilled water + Tween-80) is 100 % of control; the T/C (dose: 200.0 mg/kg/injection, schedule: Q01DX009 (ip), vehicle: distilled water + Tween-80) was 95 % of control; the T/C (dose: 400.0 mg/kg/injection, schedule: Q01DX009 (ip), vehicle: distilled water + Tween-80) was 101 % of control.
Turning to `C=CS(=O)(=O)c1ccc(C)cc1`, the T/C is, setting by setting: (dose: 1.56 mg/kg/injection, schedule: Q01DX009 (ip), vehicle: Klucel (hydroxypropylcellulose) (HPC)) 104 % of control; (dose: 3.13 mg/kg/injection, schedule: Q01DX009 (ip), vehicle: Klucel (hydroxypropylcellulose) (HPC)) 99 % of control and 105 % of control; (dose: 6.25 mg/kg/injection, schedule: Q01DX009 (ip), vehicle: Klucel (hydroxypropylcellulose) (HPC)) 121 % of control and 95 % of control; (dose: 12.5 mg/kg/injection, schedule: Q01DX009 (ip), vehicle: Klucel (hydroxypropylcellulose) (HPC)) 99 % of control and 111 % of control.
For the molecule `CC1=C(O)C(=O)[C@@H]2O[C@@H]2C1=O`, the T/C is 111 % of control (dose: 1.5 mg/kg/injection, schedule: Q01DX007 (ip), vehicle: saline); 122 % of control (dose: 3.0 mg/kg/injection, schedule: Q01DX007 (ip), vehicle: saline); 122 % of control (dose: 6.0 mg/kg/injection, schedule: Q01DX007 (ip), vehicle: saline).
For `COC(=O)C=P(c1ccccc1)(c1ccccc1)c1ccccc1`, the T/C is 104 % of control under setting [6], 100 % of control under setting [7] and 91 % of control under setting [8].
For the molecule `c1ccc(C2=NNC(c3ccccc3)=NN2)cc1`, the T/C (dose: 0.78 mg/kg/injection, schedule: Q01DX009 (ip), vehicle: saline with Tween-80) was 107 % of control; the T/C (dose: 1.56 mg/kg/injection, schedule: Q01DX009 (ip), vehicle: saline with Tween-80) is 95 % of control; the T/C (dose: 3.12 mg/kg/injection, schedule: Q01DX009 (ip), vehicle: saline with Tween-80) was 89 % of control; the T/C under setting [6] is 93 % of control; the T/C under setting [7] is 100 % of control; the T/C (dose: 50.0 mg/kg/injection, schedule: Q04DX003 (ip), vehicle: Klucel (hydroxypropylcellulose) (HPC)) is 97 % of control. The T/C was 90 % of control under setting [8]; 104 % of control (dose: 100.0 mg/kg/injection, schedule: Q04DX003 (ip), vehicle: Klucel (hydroxypropylcellulose) (HPC)); 97 % of control (dose: 200.0 mg/kg/injection, schedule: Q04DX003 (ip), vehicle: Klucel (hydroxypropylcellulose) (HPC)); 94 % of control (dose: 400.0 mg/kg/injection, schedule: Q04DX003 (ip), vehicle: Klucel (hydroxypropylcellulose) (HPC)).
